Source: EPA's ToxRefDB 2

Tests used:
[1] = test system: dog; conditions: Chronic toxicity; beagle; Oral; Capsule; dose end: 6 month; group: systemic; systemic / clinical chemistry / potassium / potassium + systemic / in life observation / body weight / body weight + systemic / in life …
[2] = test system: mouse; conditions: Fertility (Segment I), Oral, Gavage/Intubation, dose end: 1 generation
[3] = group: maternal, reproductive / reproductive performance / mating / mating + reproductive / reproductive performance / precoital interval / precoital …
[4] = group: parental, systemic / in life observation / body weight / body weight gain

Row | SMILES | LEL [1] [mg/kg/day] | LOAEL [1] [mg/kg/day] | NEL [1] [mg/kg/day] | NOAEL [1] [mg/kg/day] | LEL [2, 3] [mg/kg/day] | LOAEL [2, 3] [mg/kg/day] | NEL [2, 3] [mg/kg/day] | NOAEL [2, 3] [mg/kg/day] | LEL [2, 4] [mg/kg/day] | LOAEL [2, 4] [mg/kg/day] | NEL [2, 4] [mg/kg/day] | NOAEL [2, 4] [mg/kg/day]
1 | CCc1c(C(=O)NN2CCCCC2)nn(-c2ccc(Cl)cc2Cl)c1-c1ccc(Br)cc1 [Surinabant] | 1.5 | 1.5 | < 1.5 | < 1.5 | – | – | – | – | – | – | – | –
2 | CCc1nn(CCO)c(CC)c1Oc1cc(C#N)cc(C#N)c1 [Lersivirine] | – | – | – | – | 700 | > 700 | 200 | ≥ 700 | 200 | > 700 | 70 | ≥ 700
